Measurements from ChEMBL document CHEMBL3885861, “Open TG-GATES”.
*1 amine or outer side, *2 acyl side, *3 side chain or, on linkers, in order; H or OH if unused. Where a SMILES comes first, the peptide text is derived from it. Bridges are numbered along the chain shown (N, C = ends). [ ]: non-standard residue; d: D form. Trp(2-yl) = O=C([C@H](Cc1c([*:3])[nH]c2ccccc12)N[*:1])[*:2]; Leu(4R-OH,5-OH) = C[C@](O)(CO)C[C@H](N)C(=O)O; cisHyp = O=C(O)[C@@H]1C[C@H](O)CN1

Species: Rattus norvegicus
Assay: Open TG-GATES - Regimen: Single
Assay type: toxicity, organism-based, Sprague-Dawley
Design: regimen Single, gender Male, age 6 weeks
Conditions: in vivo, ip, 1 mg/kg, route intraperitoneal injection, dose level High; for APTT / Bas / Eos / Fbg / Hb / Ht / Lym / MCH / MCHC / MCV / Mono / Neu / PT / Plat / RBC / Ret / WBC: tissue Blood; for KIDNEY_L / KIDNEY_R / KIDNEY_TOTAL: tissue Kidney; for LIVER: tissue Liver; for A/G / ALP / ALT / AST / BUN / CRE / Ca / Cl / DBIL / GLC / IP / K / LDH / Na / PL / RALB / TBIL / TC / TG / TP / gamma-GTP: tissue Plasma

Structure (SMILES): C[C@@H]1NC(=O)[C@H](C[C@@](C)(O)CO)NC(=O)[C@@H]2Cc3c([nH]c4ccccc34)SC[C@H](NC(=O)[C@@H]([C@H](C)O)NC1=O)C(=O)N1C[C@@H](O)C[C@H]1C(=O)N[C@@H](C)C(=O)N2 [PHALLOIDIN] (cyclo(A[dT]C[cisHyp]A[Trp(2-yl)][Leu(4R-OH,5-OH)]); thioether 3-6)
- TERMINAL_BW (3 h): 211.9 g
- APTT (3 h): 21.8 s
- Bas (3 h): 0%
- Eos (3 h): 0%
- Fbg (3 h): 259.6 mg/dL
- Hb (3 h): 12.4 g/dL
- Ht (3 h): 39.5%
- Lym (3 h): 73.8%
- MCH (3 h): 20 pg
- MCHC (3 h): 31.5%
- MCV (3 h): 63.3 fL
- Mono (3 h): 2.6%
- Neu (3 h): 22.6%
- PT (3 h): 15.9 s
- Plat (3 h): 108.1 x10_4/uL
- RBC (3 h): 623.8 x10_4/ul
- Ret (3 h): 7.7%
- WBC (3 h): 66 x10_2/uL
- KIDNEY_L (3 h): 1 g
- KIDNEY_R (3 h): 1 g
- KIDNEY_TOTAL (3 h): 2 g
- LIVER (3 h): 9.1 g
- A/G (3 h): 1.2
- ALP (3 h): 1810.8 IU/L
- ALT (3 h): 49.6 IU/L
- AST (3 h): 110 IU/L
- BUN (3 h): 12 mg/dL
- CRE (3 h): 0.2 mg/dL
- Ca (3 h): 10.4 mg/dL
- Cl (3 h): 107.8 meq/L
- DBIL (3 h): 0.006 mg/dL
- GLC (3 h): 184.8 mg/dL
- IP (3 h): 8.6 mg/dL
- K (3 h): 4 meq/L
- LDH (3 h): 235.2 IU/L
- Na (3 h): 139.6 meq/L
- PL (3 h): 125.8 mg/dL
- RALB (3 h): 2.7 g/dL
- TBIL (3 h): 0.012 mg/dL
- TC (3 h): 78.6 mg/dL
- TG (3 h): 36.2 mg/dL
- TP (3 h): 4.9 g/dL
- gamma-GTP (3 h): 1.6 IU/L
- TERMINAL_BW (6 h): 210 g
- APTT (6 h): 22.3 s
- Bas (6 h): 0%
- Eos (6 h): 0.2%
- Fbg (6 h): 286.6 mg/dL
- Hb (6 h): 12.5 g/dL
- Ht (6 h): 39.2%
- Lym (6 h): 79.6%
- MCH (6 h): 20 pg
- MCHC (6 h): 31.9%
- MCV (6 h): 62.6 fL
- Mono (6 h): 2%
- Neu (6 h): 17.4%
- PT (6 h): 15.9 s
- Plat (6 h): 111.9 x10_4/uL
- RBC (6 h): 626 x10_4/ul
- Ret (6 h): 6.8%
- WBC (6 h): 90.8 x10_2/uL
- KIDNEY_L (6 h): 0.9 g
- KIDNEY_R (6 h): 1 g
- KIDNEY_TOTAL (6 h): 1.9 g
- LIVER (6 h): 9.2 g
- A/G (6 h): 1.3
- ALP (6 h): 1613.8 IU/L
- ALT (6 h): 56.6 IU/L
- AST (6 h): 114.6 IU/L
- BUN (6 h): 14.8 mg/dL
- CRE (6 h): 0.2 mg/dL
- Ca (6 h): 10.3 mg/dL
- Cl (6 h): 106.2 meq/L
- DBIL (6 h): 0 mg/dL
- GLC (6 h): 186.4 mg/dL
- IP (6 h): 7.6 mg/dL
- K (6 h): 3.9 meq/L
- LDH (6 h): 232 IU/L
- Na (6 h): 142 meq/L
- PL (6 h): 141 mg/dL
- RALB (6 h): 2.9 g/dL
- TBIL (6 h): 0.004 mg/dL
- TC (6 h): 90.4 mg/dL
- TG (6 h): 65.8 mg/dL
- TP (6 h): 5.1 g/dL
- gamma-GTP (6 h): 1.8 IU/L
- TERMINAL_BW (9 h): 208.3 g
- APTT (9 h): 20.7 s
- Bas (9 h): 0%
- Eos (9 h): 0.4%
- Fbg (9 h): 291.6 mg/dL
- Hb (9 h): 12.3 g/dL
- Ht (9 h): 39.3%
- Lym (9 h): 80.6%
- MCH (9 h): 20.2 pg
- MCHC (9 h): 31.4%
- MCV (9 h): 64.4 fL
- Mono (9 h): 2.4%
- Neu (9 h): 15.4%
- PT (9 h): 15.3 s
- Plat (9 h): 114.2 x10_4/uL
- RBC (9 h): 610.4 x10_4/ul
- Ret (9 h): 7.8%
- WBC (9 h): 75 x10_2/uL
- KIDNEY_L (9 h): 0.9 g
- KIDNEY_R (9 h): 0.9 g
- KIDNEY_TOTAL (9 h): 1.9 g
- LIVER (9 h): 9.2 g
- A/G (9 h): 1.3
- ALP (9 h): 1636.4 IU/L
- ALT (9 h): 56.8 IU/L
- AST (9 h): 109.6 IU/L
- BUN (9 h): 12.8 mg/dL
- CRE (9 h): 0.2 mg/dL
- Ca (9 h): 10.4 mg/dL
- Cl (9 h): 106.4 meq/L
- DBIL (9 h): 0 mg/dL
- GLC (9 h): 180.4 mg/dL
- IP (9 h): 7.9 mg/dL
- K (9 h): 4.3 meq/L
- LDH (9 h): 158.2 IU/L
- Na (9 h): 140.4 meq/L
- PL (9 h): 144 mg/dL
- RALB (9 h): 2.9 g/dL
- TBIL (9 h): 0.008 mg/dL
- TC (9 h): 97.4 mg/dL
- TG (9 h): 63.2 mg/dL
- TP (9 h): 5.1 g/dL
- gamma-GTP (9 h): 1.6 IU/L
- TERMINAL_BW (24 h): 220.3 g
- APTT (24 h): 21.7 s
- Bas (24 h): 0%
- Eos (24 h): 0.8%
- Fbg (24 h): 304.4 mg/dL
- Hb (24 h): 12.5 g/dL
- Ht (24 h): 39.6%
- Lym (24 h): 81.2%
- MCH (24 h): 20.3 pg
- MCHC (24 h): 31.7%
- MCV (24 h): 64 fL
- Mono (24 h): 1.8%
- Neu (24 h): 15.6%
- PT (24 h): 15.4 s
- Plat (24 h): 119.9 x10_4/uL
- RBC (24 h): 619.8 x10_4/ul
- Ret (24 h): 7.6%
- WBC (24 h): 71.5 x10_2/uL
- KIDNEY_L (24 h): 1 g
- KIDNEY_R (24 h): 1 g
- KIDNEY_TOTAL (24 h): 2.1 g
- LIVER (24 h): 10.2 g
- A/G (24 h): 1.2
- ALP (24 h): 1849.4 IU/L
- ALT (24 h): 45 IU/L
- AST (24 h): 81.6 IU/L
- BUN (24 h): 15.2 mg/dL
- CRE (24 h): 0.1 mg/dL
- Ca (24 h): 10.7 mg/dL
- Cl (24 h): 106.8 meq/L
- DBIL (24 h): 0.002 mg/dL
- GLC (24 h): 189.2 mg/dL
- IP (24 h): 8.2 mg/dL
- K (24 h): 4.4 meq/L
- LDH (24 h): 191 IU/L
- Na (24 h): 141.6 meq/L
- PL (24 h): 147.2 mg/dL
- RALB (24 h): 2.8 g/dL
- TBIL (24 h): 0.002 mg/dL
- TC (24 h): 95.8 mg/dL
- TG (24 h): 74 mg/dL
- TP (24 h): 5.3 g/dL
- gamma-GTP (24 h): 1.6 IU/L
